How the values were obtained:
[1] = system: tyrosinase expression in Tyr^lacO, LacI double transgenic mice; assay: IPTG derepression of tyrosinase expression (pigmentation) in Tyr^lacO, LacI double transgenic mice; assay type: in vivo, mouse
Procedure: The lac operator-repressor system of the present invention was tested in mice using a regulatable version of a well-characterized visible marker gene, tyrosinase. Tyrosinase is the protein product of the albino (c) locus (Kwon et al., PNAS 84, 7473-7477 (1987)), and is the enzyme that catalyzes the first step in melanin biosynthesis. The target transgene consists of the wildtype murine tyrosinase cDNA under the control of the murine tyrosinase promoter modified to contain lac operator sequences (See FIG. 2). The major transcription start site in the tyrosinase promoter is 83 bp upstream of the start codon. To maintain the endogenous spacing of promoter elements in the critical region between the start of transcription and the start of translation, a PCR-based, site-directed mutagenesis was used to change 25 bp of the endogenous sequence to create a primary lac operator centered at 59 bp upstream of the start of translation. Additional operators were inserted 176 bp and 526 bp upstream of the primary operator (FIG. 2). Mice containing this modified Tyrosinase transgene resemble pigmented animals previously described (Methot et al., nucleic Acids Research, 23, 4551-4556 (1995)) that had been microinjected with an unregulatable version of the same transgene. Two lines of pigmented Tyrosinase transgenic mice were established containing the regulatable transgene. […]

[2] = Tolerability of IPTG in the drinking water of Tyr^lacO, LacI double-transgenic mice; assay type: in vivo, mouse
Procedure: Tyrosinase activity was derepressed by replacing the drinking water with a 10 mM solution of IPTG (changed every four days). To allow for the normal pattern of tyrosinase expression during development, the female was started on 10 mM IPTG at day 7 of pregnancy.

[3] = system: tyrosinase expression in Tyr^lacO, LacI double transgenic embryos and pups; assay: Transplacental IPTG regulation and reversibility of pigmentation in embryonic and newborn double transgenic mice; assay type: in vivo, mouse
Description: To determine if lac elements could regulate pigmentation during embryogenesis and if IPTG could act transplacentally, the pigmentation in the developing retinal pigment epithelium of embryonic and newborn mice was investigated. At E9, tyrosinase activity in the embryonic eye of wild type mice begins to deposit pigment in the developing retinal pigment epithelium. At E12.5, the mouse RPE clearly is pigmented. Tyr^lacO (43) transgenic mice recapitulate this developmental event. A distinct band of pigmentation surrounding the central lens is seen in the Tyrosinase transgenic embryo that is not seen in the nontransgenic albino.
Finally, the reversibility of the system was tested by switching the Tyrosinase transgene on after it had been off, or off after it had been on, in the same animal. The phenotypes of eyes of newborn mice were compared to the phenotypes of embryonic eyes of mice of the same genotype. […] However, at E12.5, this double transgenic pup has the albino phenotype. […] Reversibility was also observed with regards to switching off the tyrosinase gene after it had intially been on. […] As expected, the eyes remain pigmented due to the low turnover of cells and melanosomes in the RPE.
For embryonic eyes, pregnant females were euthanized at E12.5, and the embryos removed. The head of each embryo was fixed in 2% paraformaldehyde in 0.1 M phosphate (pH 7.4), and the lower half was taken for genotyping. Tyrosinase activity was derepressed by replacing the drinking water with a 10 mM solution of IPTG (changed every four days). To allow for the normal pattern of tyrosinase expression during development, the female was started on 10 mM IPTG at day 7 of pregnancy.

[4] = system: mouse L-cells stably transfected with lacI expression vector; details: MSV-CAT reporter with lac operators; cited from earlier work
[5] = cited from earlier work

CC(C)S[C@@H]1O[C@H](CO)[C@H](O)[C@H](O)[C@H]1O [IPTG, isopropyl-β-D-thiogalactoside]
tyrosinase expression / coat phenotype ([1]; double transgenic animal, 10 mM IPTG in the drinking water): derepressed tyrosinase expression | pigmentation in the retinal pigment epithelium (RPE) ([1]; double transgenic mouse treated with IPTG, eye sections): restoration of pigmentation in the RPE to levels indistinguishable from the nonrepressed state | deleterious effects on long-term administration ([2]; 10 mM IPTG in drinking water for up to 8 months): no deleterious effects | toxicity of the circulating level that derepresses target gene expression ([2]; IPTG in the drinking water): completely nontoxic | pigmentation of the embryonic RPE ([3]; double-transgenic embryo at E12.5, mother on 10 mM IPTG in drinking water during pregnancy): not when the mother was treated with IPTG during pregnancy | placental transfer ([3]; mother given IPTG in drinking water): can cross the placenta | switching tyrosinase expression on after a period of silencing (eye pigmentation at birth) ([3]; mother started on IPTG at E12.5 of pregnancy): able to switch tyrosinase expression on | coat phenotype after removal of IPTG ([3]; pup's mother taken off IPTG at P9): reversion of the coat phenotype to albino | CAT activity [4]: marked de-repression of CAT activity | tissue distribution ([5]; adult animal, spleen, liver, lung, kidney, brain, adipose tissue): widespread | nuclear uptake of inducer, of the total cell uptake ([5]; average): 18% | clearance from the blood ([5]; in vivo): rapidly cleared from the blood | metabolism in the animal ([5]; in vivo): not metabolized | relative concentration of inducer to repressor molecules versus that required for maximal induction in E. coli ([5]; in vivo): ~1000 fold | time functionally active after introduction into the bloodstream ([5]; in vivo): at least 4 hours | time to reach high levels in cells of tissues ([5]; uptake by facilitated transport into tissues of the animal): 2 to 4 h
